According to ChEMBL document CHEMBL5143743, “Novel Thioxothiazolo[3,4-a]quinazolin-5(4H)-one Derivatives as BKCa Channel Activators for Urinary Incontinence” (ACS Med Chem Lett, 2022):
Values belong to the molecule of their own block, whether it stands above or below them. Calls of active or inactive are those of the source. No cut-off for these calls is given here.

Assays:
AD293 [1] = assay: Activation of human Slo G803D/N806K mutant expressed in human AD293 cells assessed as initial velocity of channel activation at 6 uM measured at 2 secs interval for 4 secs by FluxOR based fluorescence assay; assay type: cell-based; settings: filed as activator, time 4.0 sec
[2] = (§1) Activation of human Slo G803D/N806K mutant expressed in human AD293 cells measured at 2 secs interval for 120 secs by FluxOR based fluorescence assay; assay type: cell-based
AD293 [3] = assay: Activation of human Slo G803D/N806K mutant expressed in human AD293 cells assessed as increase in channel activity by measuring change in relative fluorescence unit at 6 uM measured at 2 secs interval for 80 secs by FluxOR based fluorescence assay; assay type: cell-based; settings: filed as activator, time 80.0 sec
[4] = Stability in human liver microsomes assessed as parent compound remaining at 1 uM measured after 30 mins in presence of NADPH regeneration system by LC-MS/MS analysis; assay type: ADME, Microsome; settings: read-out: Stability
Rattus norvegicus [5] = assay: Inhibition of overactive bladder activity in spontaneously hypertensive rat assessed as reduction in voiding frequency at 10 mg/kg, po measured after 3 hrs; assay type: functional, organism-based
[6] = target: Calcium-activated potassium channel subunit alpha-1 (Rattus norvegicus) (UniProt Q62976); assay: Activation of rat Slo expressed in Xenopus laevis oocytes assessed as delayed channel closing 10 uM with 100 mV holding potential by patch-clamp electrophysiological method; assay type: cell-based; settings: Oocyte, filed as activator
Calcium-activated potassium channel subunit alpha-1 (Rattus norvegicus), sequence (Q62976 whole entry): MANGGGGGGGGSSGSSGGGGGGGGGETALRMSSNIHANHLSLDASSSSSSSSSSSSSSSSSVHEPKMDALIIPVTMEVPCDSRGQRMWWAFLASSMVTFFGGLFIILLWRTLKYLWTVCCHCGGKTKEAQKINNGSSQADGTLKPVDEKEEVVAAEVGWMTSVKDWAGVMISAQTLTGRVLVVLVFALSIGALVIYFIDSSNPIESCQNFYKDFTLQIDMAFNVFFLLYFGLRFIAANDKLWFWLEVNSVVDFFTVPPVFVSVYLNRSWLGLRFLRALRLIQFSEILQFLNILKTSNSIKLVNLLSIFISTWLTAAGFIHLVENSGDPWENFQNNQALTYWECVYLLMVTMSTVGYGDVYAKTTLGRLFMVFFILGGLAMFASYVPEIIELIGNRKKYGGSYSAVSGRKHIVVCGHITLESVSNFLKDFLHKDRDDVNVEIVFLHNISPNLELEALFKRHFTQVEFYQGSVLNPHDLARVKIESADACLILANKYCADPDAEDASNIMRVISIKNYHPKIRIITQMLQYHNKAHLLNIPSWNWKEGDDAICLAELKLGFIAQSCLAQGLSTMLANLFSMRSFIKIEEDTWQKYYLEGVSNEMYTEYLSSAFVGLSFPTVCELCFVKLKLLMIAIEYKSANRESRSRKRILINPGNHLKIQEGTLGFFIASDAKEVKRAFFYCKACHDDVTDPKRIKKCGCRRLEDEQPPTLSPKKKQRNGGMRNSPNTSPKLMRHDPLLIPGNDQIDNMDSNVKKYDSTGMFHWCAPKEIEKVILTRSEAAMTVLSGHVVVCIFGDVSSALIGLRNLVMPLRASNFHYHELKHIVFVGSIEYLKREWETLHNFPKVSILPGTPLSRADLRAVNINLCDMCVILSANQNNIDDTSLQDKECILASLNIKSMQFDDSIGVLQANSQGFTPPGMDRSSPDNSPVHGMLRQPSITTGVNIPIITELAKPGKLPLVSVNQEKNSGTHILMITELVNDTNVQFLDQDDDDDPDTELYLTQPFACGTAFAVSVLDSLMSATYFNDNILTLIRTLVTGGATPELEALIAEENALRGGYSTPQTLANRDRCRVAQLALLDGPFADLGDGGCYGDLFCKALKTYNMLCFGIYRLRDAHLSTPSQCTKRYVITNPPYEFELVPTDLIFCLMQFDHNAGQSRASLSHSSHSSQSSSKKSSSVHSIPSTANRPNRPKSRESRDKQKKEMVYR

[7] = target: Calcium-activated potassium channel subunit alpha-1 (Rattus norvegicus) (UniProt Q62976); assay: Activation of rat Slo expressed in Xenopus laevis oocytes assessed as intracellular shift in voltage at half activation at 10 uM with 100 mV holding potential by patch-clamp electrophysiological method; assay type: cell-based; settings: Oocyte, filed as activator
[8] = Cmax in Sprague-Dawley rat at 10 mg/kg, po by LC-MS analysis; assay type: ADME, organism-based; parameters: dose 10 mg/kg, route po; settings: in vivo
[9] = AUC (infinity) in Sprague-Dawley rat at 5 mg/kg, iv by LC-MS analysis; assay type: ADME, organism-based; parameters: time infinity, dose 5 mg/kg, route iv; settings: in vivo
[10] = AUC (0 to 8 hrs) in Sprague-Dawley rat at 10 mg/kg, po by LC-MS analysis; assay type: ADME, organism-based; parameters: time < 8 hr, dose 10 mg/kg, route po; settings: in vivo
[11] = Protein binding in rat plasma at 5 uM measured after 4 hrs by LC-MS/MS analysis; assay type: ADME, cell-free; settings: read-out: PPB
[12] = target: Calcium-activated potassium channel subunit alpha-1 (Rattus norvegicus) (UniProt Q62976); assay: Activation of rat Slo expressed in Xenopus laevis oocytes assessed as increase in intracellular maximum conductance at 10 uM with 100 mV holding potential by patch-clamp electrophysiological method relative to control; assay type: cell-based; settings: Oocyte, filed as activator
[13] = Tmax in Sprague-Dawley rat at 10 mg/kg, po by LC-MS analysis; assay type: ADME, organism-based; settings: in vivo
AD293 [14] = assay: Activation of human Slo G803D/N806K mutant expressed in human AD293 cells assessed as increase in initial velocity at 5 uM measured at 2 secs interval for 4 secs by FluxOR based fluorescence assay; assay type: cell-based; settings: filed as activator, time 4.0 sec
[15] = Protein binding in human plasma at 5 uM measured after 4 hrs by LC-MS/MS analysis; assay type: ADME, cell-free; settings: read-out: PPB
[16] = target: Calcium-activated potassium channel subunit alpha-1 (Rattus norvegicus) (UniProt Q62976); assay: Activation of rat Slo expressed in Xenopus laevis oocytes assessed as increase in maximum conductance at 10 uM with 100 mV holding potential by patch-clamp electrophysiological method relative to control; assay type: cell-based; settings: Oocyte, filed as activator
[17] = target: Calcium-activated potassium channel subunit alpha-1 (Rattus norvegicus) (UniProt Q62976); assay: Activation of rat Slo expressed in Xenopus laevis oocytes assessed as shift in voltage at half activation at 10 uM with 100 mV holding potential by patch-clamp electrophysiological method; assay type: cell-based; settings: Oocyte, filed as activator
AD293 [18] = assay: as §1; assay type: cell-based; settings: filed as activator, time 120.0 sec, DDE = dose-dependent effect
Rattus norvegicus [19] = assay: Inhibition of overactive bladder activity in spontaneously hypertensive rat assessed as reduction in voiding frequency at 50 mg/kg, po measured after 3 hrs relative to control; assay type: functional
[20] = Half life in Sprague-Dawley rat at 5 mg/kg, iv by LC-MS analysis; assay type: ADME, organism-based; settings: in vivo
[21] = Clearance in Sprague-Dawley rat at 5 mg/kg, iv by LC-MS analysis; assay type: ADME, organism-based; settings: in vivo
[22] = Oral bioavailability in Sprague-Dawley rat at 10 mg/kg by LC-MS analysis; assay type: ADME, organism-based; settings: in vivo
[23] = AUC (0 to 8 hrs) in Sprague-Dawley rat at 5 mg/kg, iv by LC-MS analysis; assay type: ADME, organism-based; parameters: time < 8 hr, dose 5 mg/kg, route iv; settings: in vivo
[24] = AUC (infinity) in Sprague-Dawley rat at 10 mg/kg, po by LC-MS analysis; assay type: ADME, organism-based; parameters: time infinity, dose 10 mg/kg, route po; settings: in vivo
[25] = target: Calcium-activated potassium channel subunit alpha-1 (Rattus norvegicus) (UniProt Q62976); assay: Activation of rat Slo expressed in Xenopus laevis oocytes assessed as shortened channel opening 10 uM with 100 mV holding potential by patch-clamp electrophysiological method; assay type: cell-based; settings: Oocyte, filed as activator
AD293 [26] = assay: Activation of human Slo G803D/N806K mutant expressed in human AD293 cells assessed as increase in initial velocity at 1 uM measured at 2 secs interval for 120 secs by FluxOR based fluorescence assay; assay type: cell-based; settings: filed as activator, time 120.0 sec
[27] = target: Calcium-activated potassium channel subunit alpha-1 (Rattus norvegicus) (UniProt Q62976); assay: Activation of rat Slo expressed in Xenopus laevis oocytes at 10 uM with 100 mV holding potential by patch-clamp electrophysiological method; assay type: cell-based; settings: Oocyte, filed as activator
[28] = Half life in Sprague-Dawley rat at 10 mg/kg, po by LC-MS analysis; assay type: ADME, organism-based; settings: in vivo
[29] = Volume of distribution at steady state in Sprague-Dawley rat at 5 mg/kg, iv by LC-MS analysis; assay type: ADME, organism-based; settings: in vivo, read-out: Vdss

- EC50 [2]: 5.74 µM
SMILES: Cc1cccc(NC(=O)c2sc(=S)n3c2[nH]c(=O)c2cc(Br)ccc23)c1
- V0 (AD293 [1]): 9.77 s⁻¹
- Activity (AD293 [3]): 4.98 RFU

SMILES: Cc1ccc(NC(=O)c2sc(=S)n3c2[nH]c(=O)c2cc(Br)ccc23)cc1
- V0 (AD293 [1]): 0.71 s⁻¹
- Activity (AD293 [3]): 1.41 RFU

SMILES: O=C(Nc1ccccc1)c1sc(=S)n2c1[nH]c(=O)c1ccccc12
- V0 (AD293 [1]): 0.42 s⁻¹
- Activity (AD293 [3]): 1.03 RFU

- EC50 [2]: 4.6 µM
SMILES: Cc1ccccc1NC(=O)c1sc(=S)n2c1[nH]c(=O)c1cc(Br)ccc12
- V0 (AD293 [1]): 9.4 s⁻¹
- Activity (AD293 [3]): 3.68 RFU

- EC50 [2]: 11.2 µM
SMILES: O=C(Nc1cccc(O)c1)c1sc(=S)n2c1[nH]c(=O)c1cc(Br)ccc12
- V0 (AD293 [1]): 4.03 s⁻¹
- Activity (AD293 [3]): 4.88 RFU

- EC50 [2]: 17.3 µM
SMILES: O=C(Nc1cc(C(F)(F)F)cc(C(F)(F)F)c1)c1sc(=S)n2c1[nH]c(=O)c1cc(Br)ccc12
- V0 (AD293 [1]): 2.08 s⁻¹
- Activity (AD293 [3]): 2.28 RFU

SMILES: O=C(NCc1ccccc1)c1sc(=S)n2c1[nH]c(=O)c1ccccc12
- V0 (AD293 [1]): 0.26 s⁻¹
- Activity (AD293 [3]): 1.1 RFU

SMILES: O=C(Nc1ccccc1)c1sc(=S)n2c1[nH]c(=O)c1ccc(Br)cc12
- V0 (AD293 [1]): 0.56 s⁻¹
- Activity (AD293 [3]): 1.25 RFU

- EC50 [2]: 6.6 µM
SMILES: COc1cccc(NC(=O)c2sc(=S)n3c2[nH]c(=O)c2cc(Br)ccc23)c1
- V0 (AD293 [1]): 6 s⁻¹
- Activity (AD293 [3]): 3.35 RFU

SMILES: Cc1ccc2c(=O)[nH]c3c(C(=O)Nc4ccccc4)sc(=S)n3c2c1
- V0 (AD293 [1]): 0.23 s⁻¹
- Activity (AD293 [3]): 1.06 RFU

SMILES: O=C(Nc1ccccc1)c1sc(=S)n2c1[nH]c(=O)c1ccc(Cl)cc12
- V0 (AD293 [1]): 0.84 s⁻¹
- Activity (AD293 [3]): 1.56 RFU

- EC50 [2]: 12.7 µM
SMILES: O=C(O)c1sc(=S)n2c1[nH]c(=O)c1ccccc12
- V0 (AD293 [1]): 0.38 s⁻¹
- Activity (AD293 [3]): 1.38 RFU

SMILES: NC(=O)c1sc(=S)n2c1[nH]c(=O)c1ccccc12
- V0 (AD293 [1]): 0.32 s⁻¹
- Activity (AD293 [3]): 0.96 RFU

SMILES: O=C(Nc1ccccc1)c1sc(=S)n2c1[nH]c(=O)c1cc(Cl)ccc12
- V0 (AD293 [1]): 0.38 s⁻¹
- Activity (AD293 [3]): 1.18 RFU

- EC50 [2]: 12.3 µM
SMILES: O=C(Nc1ccccc1)c1sc(=S)n2c1[nH]c(=O)c1cc(Br)ccc12
- V0 (AD293 [1]): 5.51 s⁻¹
- Activity (AD293 [3]): 3.83 RFU

SMILES: Cc1ccc2c(c1)c(=O)[nH]c1c(C(=O)Nc3ccccc3)sc(=S)n12
- V0 (AD293 [1]): 0.32 s⁻¹
- Activity (AD293 [3]): 1.16 RFU

- EC50 [2]: 14.9 µM
SMILES: FC(F)(F)c1cc(NC(=S)Nc2ccc(Br)cc2-c2nnn[nH]2)cc(C(F)(F)F)c1
- V0 (AD293 [1]): 1.63 s⁻¹
- Activity (AD293 [3]): 1.86 RFU

- EC50 [2]: 3.82 µM
SMILES: O=C(Nc1cccc(OC(F)(F)F)c1)c1sc(=S)n2c1[nH]c(=O)c1cc(Br)ccc12
- V0 (AD293 [1]): 14.8 s⁻¹
- Activity (AD293 [3]): 4.37 RFU

- EC50 [2]: 4.85 µM
SMILES: O=C(Nc1cccc(Cl)c1)c1sc(=S)n2c1[nH]c(=O)c1cc(Br)ccc12
- V0 (AD293 [1]): 16.1 s⁻¹
- Activity (AD293 [3]): 3.56 RFU

- remaining at 0.5 h, 1 µM [4]: 56%
- EC50 [2]: 1.14 µM
SMILES: O=C(Nc1cccc(F)c1)c1sc(=S)n2c1[nH]c(=O)c1cc(Br)ccc12
- V0 (AD293 [1]): 12.6 s⁻¹
- Activity (AD293 [3]): 2.85 RFU

- Activity [6]: Active
- delta(V1/2) [7]: 7.5 mV
- Cmax [8]: 1190 ng/mL
- AUC [9]: 30.63 uM.hr/ml
- AUC [10]: 13.64 uM.hr/ml
- fraction unbound at 4 h, 5 µM [11]: < 0.03
- fold change (FC) [12]: 1.3
- Tmax [13]: 6.67 h
- fraction unbound at 4 h, 5 µM [15]: < 0.03
- fold change (FC) [16]: 1.5
- remaining at 0.5 h, 1 µM [4]: 76%
- delta(V1/2) [17]: 42.6 mV
- EC50 [2]: 2.89 µM
- half-life [20]: 6.59 h
- clearance [21]: 4.5 mL/min/kg
- bioavailability [22]: 25.4%
- AUC [23]: 26.8 uM.hr/ml
- AUC [24]: 17.2 uM.hr/ml
- Activity [25]: Active
- Activity [27]: Active
- half-life [28]: 8.5 h
- Vd [29]: 1.83 L/kg
SMILES: O=C(Nc1cccc(C(F)(F)F)c1)c1sc(=S)n2c1[nH]c(=O)c1cc(Br)ccc12
- inhibition (Rattus norvegicus [5]): Active
- V0 (AD293 [1]): 16.8 s⁻¹
- Activity (AD293 [14]): Active
- Activity (AD293 [18]): Dde
- inhibition in vivo at 50 mg/kg (Rattus norvegicus [19]): 33%
- Activity (AD293 [3]): 3.35 RFU
- Activity (AD293 [26]): Active
